Source: patent US20230331720A1, “MEDIUM- OR MACRO-CYCLIC BENZYL-SUBSTITUTED HETEROCYCLE DERIVATIVES AND THEIR USES AS OREXIN-2 RECEPTOR AGONISTS” (Orexia Therapeutics Limited, priority 2020, published 2023)

Target: T1, human orexin type 2 receptor (hOX2R) (Homo sapiens, UniProt O43614)
T1 construct: expressed in transfected cells
T1 sequence (O43614 1-444): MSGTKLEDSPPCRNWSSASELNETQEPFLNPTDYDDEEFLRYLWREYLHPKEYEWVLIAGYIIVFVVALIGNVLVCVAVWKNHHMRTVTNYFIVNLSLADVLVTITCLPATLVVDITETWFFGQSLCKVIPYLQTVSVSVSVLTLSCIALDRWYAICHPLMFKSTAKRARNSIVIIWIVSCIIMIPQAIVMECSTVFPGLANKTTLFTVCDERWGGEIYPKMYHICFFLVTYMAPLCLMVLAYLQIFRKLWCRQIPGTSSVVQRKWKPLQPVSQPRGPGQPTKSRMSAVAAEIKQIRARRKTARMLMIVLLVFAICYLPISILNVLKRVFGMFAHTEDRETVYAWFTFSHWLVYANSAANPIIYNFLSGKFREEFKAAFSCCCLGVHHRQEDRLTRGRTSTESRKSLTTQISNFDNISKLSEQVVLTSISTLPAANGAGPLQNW
Assay: Orexin type 2 receptor agonist activity, intracellular Ca2+ (FLIPR TETRA)
Format: cell-based
Conditions: CHO cells expressing hOX2R; Ca2+ fluorescence area; read-out: hOx2 pEC50 (converted)
Procedure: Stable cell line generation. Obtainment of cells stably expressing either human orexin type 2 or human orexin type 1 receptor; to obtain a stable cell line the Orexin receptor cDNA was inserted into pcDNA3.1(+) plasmid vector and clones identified by G418 drug resistance selection. […] A single clone for OX2R-CHO and OX1R-CHO were grown in bulk and frozen to generate a cell bank for routine screening.
Measurement of orexin type 2 receptor agonist activity. Chinese hamster ovary (CHO) cells expressing human orexin type 2 receptor (hOX2R) or human orexin type 1 receptor (hOX1R) were seeded in each well of 384 well black clear bottom plates (BD Flacon) at 10,000 cells per well and cultured for 24 hr in an Ham's F12 (Gibco) medium containing 10% fetal calf serum (Sigma Aldrich) under the conditions of 37° C., 5% CO2. After removal of the medium, 50 μl of assay buffer 1 (0.1% bovine serum albumin (Sigma Aldrich), 20 mM HEPES (Molecular Dimensions), […] probenecid (Sigma Aldrich), 1× Calcium 5 dye (Molecular Devices) in Hank's balanced salt solution (Invitrogen)) was added, and the cells were incubated for 60 min under the conditions of 37° C., 5% CO2. A test compound was dissolved in dimethyl sulfoxide (Sigma Aldrich) to 10 mM, and then diluted with assay buffer 2 (20 mM HEPES, Hank's balanced salt solution, 0.1% bovine serum albumin). For the reaction, a test compound solution (10 μl) was added using Fluorescent Imaging Plate Reader TETRA (FLIPR TETRA: manufactured by Molecular Devices), a fluorescence value (excitation wavelength 488 nm, measurement wavelength 570 nm) of each well was measured every one second for 2 min, and the agonist activity was determined using the area of the fluorescence value as an indicator of intracellular Ca^2+ concentration. The agonist activity of the test compound was calculated assuming that the fluorescence value of the well added with only the dilution buffer was 0% and the fluorescence value of the well added with 10 nM human orexin A (Tocris) buffer was 100%. As used herein, Emax indicates the value at 10 μM concentration when orexin A is converted to a full agonist (maximum value of agonist activity: 100%).

EC50	Compound
1 to 10 nM	O=C1CCOc2ccc(F)cc2-c2cccc(c2)C[C@H]2[C@@H](NS(=O)(=O)CF)CCCN12 [Compound A1-91, 1-fluoro-N-((4^2S,4^3S)-15-fluoro-5-oxo-8-oxa-4(2,1)-piperidina-1(1,2),2(1,3)-dibenzenacyclooctaphane-4^3-yl)methanesulfonamide]
10 to 100 nM	O=C1CCOc2ccccc2-c2cccc(c2)C[C@H]2[C@@H](NS(=O)(=O)CF)C3(CC3)CN12 [Compound A1-99]
10 to 100 nM	CCS(=O)(=O)NC1CCN2C(=O)OCCCCCc3ccccc3-c3cccc(c3)CC12 (racemic) [Compound A1-54, N-(5-oxo-6-oxa-4(2,1)-pyrrolidina-1(1,2),2(1.3)-dibenzenacyclo-undecaphane-4^3-yl)ethanesulfonamide]
10 to 100 nM	COc1c2cccc1-c1ccccc1OCCNC(=O)N1C[C@H](F)[C@H](NS(=O)(=O)CF)[C@@H]1C2 [Compound A1-88]
0.1 to 1 nM	O=C1CCOc2ccccc2-c2cccc(c2)C[C@H]2[C@@H](NS(=O)(=O)C3CC3)CCCN12 [Compound A1-84]
1 to 10 nM	CN1CCOc2ccccc2-c2cccc(c2)C[C@H]2[C@@H](NS(=O)(=O)N(C)C)[C@@H](F)CN2C1=O [Compound A1-81]
10 to 100 nM	CCS(=O)(=O)N[C@H]1CCCN2C(=O)CCOc3ccccc3-c3cccc(c3)C[C@@H]12 [Compound A1-74, N-((4^2,4^3S)-5-oxo-8-oxa-4(2,1)-piperidina-1(1,2),2(1.3)-dibenzenacyclo-octaphane-4^3-yl)ethanesulfonamide]
10 to 100 nM	CN(C)S(=O)(=O)N[C@H]1CCCN2C(=O)OCCOc3ccccc3-c3cccc(c3)C[C@@H]12 [Compound A1-77]
1 to 10 nM	CS(=O)(=O)N[C@H]1CCCN2C(=O)NCCOc3ccccc3-c3cccc(c3F)C[C@@H]12 [Compound A1-73]
1 to 10 nM	CN(C)S(=O)(=O)N[C@H]1CCCN2C(=O)CCCc3ccccc3-c3cccc(c3)C[C@@H]12 [Compound A1-79]
10 to 100 nM	CS(=O)(=O)N[C@H]1CCCN2C(=O)OCCOc3ccccc3-c3cccc(c3)C[C@@H]12 [Compound A1-60]
1 to 10 nM	CS(=O)(=O)N[C@H]1CCCN2C(=O)CCOc3ccccc3-c3cccc(c3F)C[C@@H]12 [Compound A1-82, N-((4^2S,4^3S)-22-fluoro-5-oxo-8-oxa-4(2.1)-piperidina-1(1,2),2(1.3)-dibenzenacyclooctaphane-4^3-yl)methanesulfonamide]

Second part, the compound before the results:

Compound	EC50
CCS(=O)(=O)NC1CCN2C(=O)CCCCCc3ccccc3-c3cccc(c3)CC12 (racemic) [Compound A1-48, N-(5-oxo-4(2,1)-pyrrolidina-1(1,2),2(1,3)-dibenzenacyclodecaphane-4^3-yl)ethanesulfonamide]	10 to 100 nM
CCS(=O)(=O)NC1CCN2C(=O)NCCCCCc3ccccc3-c3cccc(c3)CC12 (racemic) [Compound A1-50, N-(5-oxo-6-aza-4(2,1)-pyrrolidina-1(1,2),2(1,3)-dibenzenacyclo-undecaphane-43-yl)ethanesulfonamide]	1 to 10 nM
CCS(=O)(=O)NC1CCN2C(=O)CCCCCCc3ccccc3-c3cccc(c3)CC12 (racemic) [Compound A1-39, N-(5-oxo-4(2,1)-pyrrolidina-1(1,2),2(1,3)-dibenzenacycloundecaphane-4^3-yl)ethanesulfonamide]	1 to 10 nM
CCS(=O)(=O)NC1CCN2C(=O)CCC/C=C/c3ccccc3-c3cccc(c3)CC12 (mixture of isomers) [Compound A1-36, (E/Z)—N-(5-oxo-4(2,1)-pyrrolidina-1(1,2),2(1,3)-dibenzenacyclodecaphan-9-en-4^3-yl)ethanesulfonamide]	100 to 1000 nM
CS(=O)(=O)N[C@@H]1CCCN2C(=O)NCCOc3ccccc3-c3cccc(c3)C[C@H]12 [Compound A1-3, N-((4^2R,4^3R)-5-oxo-9-oxa-6-aza-4(2,1)-piperidina-1(1,2),2(1,3)-dibenzenacyclo-nonaphane-4^3-yl)methanesulfonamide]	1 to 10 nM
CS(=O)(=O)NC1CCCN2C(=O)NCCOc3ccccc3-c3cccc(c3)CC12 (racemic) [Compound A1-15, N-(5-oxo-9-oxa-6-aza-4(2,1)-piperidina-1(1,2),2(1,3)-dibenzenacyclo-nonaphane-4^3-yl)methanesulfonamide]	1 to 10 nM
CCS(=O)(=O)N[C@H]1CCN2C(=O)NCCCCCc3ccccc3-c3cccc(c3)C[C@@H]12 (single isomer, unassigned) [Compound A1-42, N-((4^2S,4^3S)-5-oxo-6-aza-4(2,1)-pyrrolidina-1(1,2),2(1,3)-dibenzenacycloundecaphane-4^3-yl)ethanesulfonamide]	0.1 to 1 nM
CN1CCOc2ccccc2-c2cccc(c2)CC2C(NS(C)(=O)=O)CCCN2C1=O (racemic) [Compound A1-2, N-(6-methyl-5-oxo-9-oxa-6-aza-4(2,1)-piperidina-1(1,2),2(1,3)-dibenzena-cyclo-nonaphane-4^3-yl)methanesulfonamide]	100 to 1000 nM
CCS(=O)(=O)NC1CCN2C(=O)CC/C=C\c3ccccc3-c3cccc(c3)CC12 (racemic) [Compound A1-26, (E/Z)—N-(5-oxo-4(2,1)-pyrrolidina-1(1,2),2(1,3)-dibenzenacyclononaphan-8-en-4^3-yl)ethanesulfonamide]	100 to 1000 nM
CCS(=O)(=O)NC1CCN2C(=O)N(C)CCCCCc3ccccc3-c3cccc(c3)CC12 (racemic) [Compound A1-18, N-(6-methyl-5-oxo-6-aza-4(2,1)-pyrrolidina-1(1,2),2(1,3)-dibenzenacyclo-undecaphane-43-yl)ethanesulfonamide]	1 to 10 nM
CCS(=O)(=O)NC1CCN2C(=O)CC/C=C/Cc3ccccc3-c3cccc(c3)CC12 (racemic) [Compound A1-53, (E/Z)—N-(5-oxo-4(2,1)-pyrrolidina-1(1,2),2(1,3)-dibenzenacyclodecaphan-8-en-4^3-yl)ethanesulfonamide]	10 to 100 nM
CCS(=O)(=O)NC1CCN2C(=O)NCCCCc3ccccc3-c3cccc(c3)CC12 (racemic) [Compound A1-49, N-(5-oxo-6-aza-4(2,1)-pyrrolidina-1(1,2),2(1,3)-dibenzenacyclodecaphane-4^3-yl)ethanesulfonamide]	10 to 100 nM
CCS(=O)(=O)NC1CCN2C(=O)NCCCCCc3c(F)cc(F)cc3-c3cccc(c3)CC12 (racemic) [Compound A1-16, N-(1^3,1^5-difluoro-5-oxo-6-aza-4(2,1)-pyrrolidina-1-(1,2),2-(1,3)-dibenzena-cycloundecaphane-4^3-yl)ethanesulfonamide]	10 to 100 nM
CCS(=O)(=O)N[C@H]1CCN2C(=O)N(C)CCCCCc3ccccc3-c3cccc(c3)C[C@@H]12 [Compound A1-10, N-((4^2S,4^3S)-6-methyl-5-oxo-6-aza-4(2,1)-pyrrolidina-1(1,2),2(1,3)-dibenzena-cycloundecaphane-4^3-yl)ethanesulfonamide]	0.1 to 1 nM
CCS(=O)(=O)NC1CCN2C(=O)CCCCCCc3c(F)cc(F)cc3-c3cccc(c3)CC12 (racemic) [Compound A1-29, N-(1^3,1^5-difluoro-5-oxo-4(2,1)-pyrrolidina-1(1,2),2(1,3)-dibenzenacyclo-undecaphane-4^3-yl)ethanesulfonamide]	100 to 1000 nM
CCS(=O)(=O)NC1CCN2C(=O)CCC/C=C/Cc3ccccc3-c3cccc(c3)CC12 (racemic) [Compound A1-41, (E/Z)—N-(5-oxo-4(2,1)-pyrrolidina-1(1.2),2(1,3)-dibenzenacyclo-undecaphan-9-en-4^3-yl)ethanesulfonamide]	10 to 100 nM
